# Test results published in patent US6448378B2, “Compound delivery using rapidly dissolving collagen film” (priority 1998, dated 2002).
# How the values were obtained:
# [1] = test system: human subconjunctival fibroblasts derived from Tenon's membrane; conditions: freshly prepared 0.4 mg/ml solution, dissolved in USP sterile water
# Procedure: 6 mm diameter discs were cut from the film and applied to human subconjunctival fibroblasts derived from Tenon's membrane layered in 96 well plates (CSM supplemented with 10% fetal bovine serum). After 72 hours, mitomycin-induced inhibition of cell division was assessed by measuring the reduction in fluorescence intensity (RFU) using a fluorogenic CalceinAM assay (see, for example, Decherchi et al., J. Neurosci. Meth. 71: 205 (1997); Sugita, Pflitgers Arch. 429: 555 (1995); Padanilam et al., Ann. NY Acad. Sci. 720: 111 (1994); Lichtenfels et al., J. Immunol. Meth. 172: 227 (1994); and Wang et al., Human Immunol. 37: 264 (1993)).
# [2] = HPLC analysis of mitomycin solution stability; format: physicochemical; conditions: storage at ambient temperature and 4° C. in the dark
# Procedure: In contrast to the stability of mitomycin in the collagen film, HPLC analysis of the mitomycin solution determined that stability was maintained for only 4 days following storage at ambient temperature and 4° C. in the dark. Dissolution and storage in 0.9% saline or phosphate buffer (pH 7.4) is not recommended due to degradation and precipitation.
smiles,measurement,setting,value
"CO[C@@]12[C@H](COC(N)=O)C3=C(C(=O)C(C)=C(N)C3=O)N1C[C@@H]1N[C@@H]12 [mitomycin solution, mitomycin]","% cell death inhibition relative to the values of the mitomycin-collagen films (91%, 90%, 92%)",[1],comparable
same,time for which stability of the solution was maintained (HPLC),[2],4 days
